Here are results for 2 molecules from publication PMC5323433 (The pharmacogenomics journal, 2016).

Series [1] is described as follows: Steady-state plasma exemestane concentration two hours after dosing. To be noted: for Relative % change per variant allele (95% CI): additive model. Type of series: in vivo, human.
The conditions of series [2]: cited from earlier work.
For series [3], the system named is breast cancer. To be noted: letrozole compared to placebo in 352 minority patients, p=0.53; cited from earlier work.
Where [4] appears, read: CYP3A4*22 rs35599367, oral 25 mg/day, 2 h post-dose.

Regarding `C=C1C[C@@H]2[C@H](CC[C@]3(C)C(=O)CC[C@@H]23)[C@@]2(C)C=CC(=O)C=C12` [exemestane], the “Median Exemestane Concentration” value in series [1] (1st Tertile (CrCl > 108.5 mL/min), 2 h post-dose) was found to be 5.9 ng/mL; in series [1] (2nd Tertile (83.0 < CrCl ≤ 108.5), 2 h post-dose), 8.6 ng/mL; in series [1] (3rd Tertile (CrCl ≤ 83.0 mL/min), 2 h post-dose), 8.0 ng/mL; in series [1] (Sample Collection Time 1 month, 2 h post-dose), 6.0 ng/mL; in series [1] (Sample Collection Time 3 month, 2 h post-dose) it was 8.0 ng/mL. For the same molecule, the “Relative % Change Compared with Reference (95% Confidence Interval)” value in series [1] (2nd CrCl tertile vs 1st tertile (reference)) is “+42.9% (8.3%–88.5%)”; in series [1] (3rd CrCl tertile vs 1st tertile (reference)), “+51.1% (14.5%–99.5%)”; in series [1] (Black vs White (reference)), −32.2% (−52.1%–−4.0%); in series [1] (elevated aminotransferases Yes vs No (reference)), “+42.9% (0.6%, 103%)”. The “Relative % change per variant allele (95% CI)” value in series [1] (AKR1C4 Leu311Val rs17134592) is −8% (−25%, 13%); in series [1] (AKR7A2 A142T rs1043657), −1% (−22%, 26%); in series [1] (CYP1A1 15:74724835 rs2606345) it was 0% (−13%, 15%); in series [1] (CYP1A1*2 rs4646903), “+16% (−7%, 46%)”; in series [1] (CYP1B1 2:38080367 rs162555), 6% (−11%, 26%); in series [1] (CYP1B1 Ala119Ser rs1056827), −1% (−15%, 16%). The “Relative % change per variant allele (95% CI)” value in series [1] (CYP1B1 Arg48Gly rs10012) is −4% (−18%, 12%); in series [1] (CYP3A4*1G rs2242480), −4% (−20%, 15%); in series [1] (CYP4A11 −845A/G rs9332978), “+14% (−15%, 51%)”. The “Relative % Change (95% Confidence Interval)” value is listed as “+0.8% (−0.4%, 2%)” in series [1] (Age, per year increase) and −1.5% (−3%, 0%) in series [1] (BMI, per unit increase). For the same molecule, the “Median Concentration (range), Heterozygous” value in series [1] (setting [4]) is 10.7 (2.8 – 72.0) ng/mL. For the same molecule, in series [1] (setting [4]), the “Median Concentration (range), Homozygous Wild-type” value is 7.7 (2.5 – 42.2) ng/mL. Also, the “Patients with concentration <LLOQ” value in series [1] (LLOQ 2.5 ng/mL, 26 of 246 patients) was 10.6%. In series [1] (per unit increase in BMI), the “Decrease in exemestane concentration per unit increase in BMI” value amounted to 1.5%. Further, the “Greater exemestane exposure in patients with hepatic impairment” value in series [2] (hepatic impairment based on Child-Pugh grade) is recorded as 2–3 fold. Also, the “Greater exemestane exposure in patients with renal impairment” value in series [2] (renal impairment) is 2–3 fold.

For `N#Cc1ccc(C(c2ccc(C#N)cc2)n2cncn2)cc1` [letrozole], in series [3], the “Disease free survival hazard ratio” value is 1.39.
